This assay has as its system P. falciparum 3D7 growth, pLDH absorbance. Briefly: P. falciparum 3D7 growth inhibition, dose response, strain 3D7 (AID 2305).

Several values for one entry are separate records, joined by “and”; a condition that tells them apart may be missing. Equal entries are not always repeated.

`O=C(NCCCc1ccccc1)c1csc(C2CCCN(C(=O)c3ccc(O)c(-c4cccc5ccccc45)c3)C2)n1` (centres undefined) gave an IC50 of 970 nM.

In turn, `CCN(CC)CC(O)c1cc(-c2ccc(C)cc2)nc2c(C)cc(C)cc12` (centres undefined) gave an IC50 of 170 nM.

As to `Cc1cccc2[nH]c(-c3cccc(-c4ccc(CNCCCN5CCCC5=O)cc4)c3)nc12`, the concentration for half-maximal inhibition (IC50) turned out to be 960 nM. This IC50 lies about 5.6-fold higher than the previous one.

Turning to `CC(=O)Nc1ccc(C(=O)Nc2ccc(-c3csc(-c4nc5ccccc5[nH]4)c3)cc2)cn1`, the half-maximal inhibitory concentration (IC50) was 590 nM.

Turning to `CC(C)(C)c1ccc(CN2CCC(CNC(=O)c3cc(-c4ccccc4C(F)(F)F)cs3)C2)cc1` (centres undefined), the concentration for half-maximal inhibition (IC50) was determined as 1240 nM.

`O=C(C1CCCCC1)N1CCOC(CCN2CCC(c3ccccc3)CC2)(c2ccc(Cl)c(Cl)c2)C1` (centres undefined) came in with an IC50 of 930 nM.

As for `Clc1ccc(Sc2cncnc2N2CCOCC2)cc1`, the 50% inhibitory concentration (IC50) came to 40 nM.

`NC(=O)c1cnc2ccc(-c3cncs3)cc2c1Nc1ccc(F)c(Cl)c1` returned an IC50 of 180 nM. Compared with the last compound, the IC50 is about 4.5-fold higher.

In turn, `CCOc1ccc(-c2nonc2NC(=O)c2cccc(Cl)c2)cc1OCC` had an IC50 of 150 nM.

`CCN1CCN(Cc2ccc(-c3ccc(NS(=O)(=O)c4cccc5cccnc45)cc3)cc2)CC1` showed a 50% inhibitory concentration (IC50) of 920 nM.

In the case of `COc1ccc(CN2CCC(CNCCc3ccccc3Oc3ccccc3)CC2)cc1`, the IC50 was 1100 nM.

`CCCn1c(=N)c(C(=O)NCCc2ccccc2)cc2c(=O)n3cccc(C)c3nc21`: the 50% inhibitory concentration (IC50) amounted to 1120 nM.

`Cc1ccc(C2(C)CN(CCCOc3cccc(-c4ccc(C(=O)NC(C)C)cc4)c3)CCO2)cc1` (centres undefined) displayed an IC50 of 960 nM.

Regarding `NC(=O)Nc1ccc2cn[nH]c2c1`, the half-inhibitory concentration (IC50) was 210 nM.

The compound `Cc1cccc(OCC2CCN(c3ncc(C(=O)NC4CC4)cc3Cl)CC2)c1` had a 50% inhibitory concentration (IC50) of 1330 nM.

With `Cc1ccc(F)c(OC2CCN(c3ccc(C(=O)NC4CC4)cn3)CC2)c1`, the IC50 amounted to 820 nM. Compared with the last compound, the IC50 is about 1.6-fold lower.

In the case of `Cc1cc(NN=Cc2ccccc2[N+](=O)[O-])c2cccc(C)c2n1`, the IC50 was found to be 550 nM.

`CC(C)CCN1CCCN(Cc2cccc(NC(=O)c3ccc(Cl)c(Cl)c3)c2)CC1` returned an IC50 of 1020 nM. Against the preceding compound, the IC50 is about 1.9-fold higher.

As for `COc1ccc(NC(=O)[C@H](Cc2ccccc2)Nc2cc(C)nc(NCCc3ccc(F)cc3)n2)cc1`, the IC50 turned out to be 1120 nM.

Consider `COc1cc(NC(=O)CCCN2CCN(c3cccc(Cl)c3Cl)CC2)ccc1N1CCN(C(C)C)CC1`, for which the IC50 stood at 950 nM.

Compound `CNC(=O)c1cnc(Nc2ccc(OCC(O)CN(C)C)cc2)nc1Nc1cccc([N+](=O)[O-])c1` (centres undefined) showed an IC50 of 620 nM.

In turn, `COc1ccccc1NC(=S)N/N=C/c1ccc(O)cc1O` gave a half-maximal inhibitory concentration (IC50) of 1020 nM.

As for `Cc1cc(NN=Cc2ccc(F)cc2)c2cccc(C)c2n1`, the IC50 was 780 nM.

With `Cc1ccc2[nH]cc(C3CCN(CC4CCC(NC(=O)/C=C/c5ccc(Cl)c(Cl)c5)CC4)CC3)c2c1` (centres undefined), the IC50 was 840 nM and 550 nM.

In turn, `Cc1cccn2c(=O)c3cc(C(=O)NC(C)c4ccccc4)c(=N)n(CCc4ccccc4)c3nc12` (centres undefined) registered an IC50 of 550 nM.

For `CCOc1cc(C(=O)NC2CCN(Cc3ccccc3)C2)ccc1-c1nc2ccc(Cl)cc2[nH]1` (centres undefined), the IC50 worked out at 1010 nM.

On to `C[C@H](NC(=O)c1c(CN2CCC(N3CCCCC3)CC2)c(-c2ccccc2)nc2cc(O)ccc12)C1CCCCC1`, for which the IC50 was found to be 760 nM.

As to `Fc1ccc2c(NN=CC=Cc3ccccc3)ccnc2c1`, the IC50 worked out at 780 nM.

`CCN(CC)C(=O)C1CCCN(C(=O)Nc2cc(C(F)(F)F)cc(C(F)(F)F)c2)C1` (centres undefined) came in with a concentration for half-maximal inhibition (IC50) of 1000 nM.

Regarding `COc1cc2c(cc1OC)-c1cc(=Nc3c(C)cc(C)cc3C)n(C)c(=O)n1CC2`, the IC50 was found to be 1110 nM.

Consider `O=S(=O)(c1cccc2cccnc12)N1CCN(C2CCCCC2)CC1`, for which the IC50 came out at 760 nM.

For the compound `Cc1c(OC(C)C)nc2ccccc2c1C(=O)N[C@H](c1cccc(F)c1)C1CC1`, the IC50 was found to be 1090 nM.

Compound `COc1ccc2cc(C(c3nnnn3CC3CCCO3)N3CCc4ccccc43)c(=O)[nH]c2c1` (centres undefined) had a half-inhibitory concentration (IC50) of 800 nM.

As for `COc1ccc(-c2cccc(NC(=O)c3ccccc3)c2)cc1CN1CCCN(C)CC1`, the IC50 is 730 nM.

On to `O=C(COC(=O)c1cccc(S(=O)(=O)N2CCc3ccccc32)c1)NNC(=O)c1cccs1`, for which the IC50 was determined as 1250 nM.

For `CS(=O)(=O)Nc1ccc2c(C3CCN(CCC4CCN(C(=O)/C=C/c5ccc(Cl)c(Cl)c5)CC4)CC3)c[nH]c2c1`, the IC50 turned out to be 600 nM.

`CCCCN(CCCC)CCCCNc1c2ccc(Cl)cc2nc2ccc(OC)cc12` showed a 50% inhibitory concentration (IC50) of 180 nM.

For the compound `CCC(C)NS(=O)(=O)c1ccc2nc(Nc3cccc(SC)c3)n(C(C)C(C)C)c2c1` (centres undefined), the IC50 was 500 nM.

`C=CCN(c1nc(NC)nc(NCc2c(OC)cccc2OC)n1)C1CCCC1`: the IC50 was 1460 nM.

On to `CCCCCCNC(=O)C1Cc2c([nH]c3cc(Cl)ccc23)C2(CCN(Cc3ccccc3)CC2)N1` (centres undefined), for which the IC50 was 900 nM.

Consider `CCOc1cc(CC)ccc1C1CCN(CCN2CCC(NC(=O)c3ccc(-c4ccc(C#N)cc4)cc3)CC2)CC1`, for which the IC50 came to 610 nM.

Compound `Fc1ccc(CNc2nc(-c3ccc(F)c(C(F)(F)F)c3)n(-c3cccc(C(F)(F)F)c3)n2)cc1` showed an IC50 of 560 nM.

`Fc1cccc(Nc2nc(NCCc3ccc(Cl)cc3)nc(Nc3cccc(F)c3)n2)c1`: the IC50 is 1070 nM.

The compound `FC(F)(F)c1ccc2nc(-c3cccc(-c4ccc(CNCC5CCCO5)cc4)c3)[nH]c2c1` (centres undefined) registered a half-maximal inhibitory concentration (IC50) of 280 nM.

As a reminder, the IC50 is the concentration that gives 50% inhibition. A low value points to inhibition by little substance.
